# Literature values, collected in patent publication US20260345654A1, “2,8-DIHYDROXYQUINOLINE GLUCURONIDE DERIVATIVES WITH ENHANCED PROPERTIES FOR USE AS ANTICANCER, ANTIVIRAL, ANTIMICROBIAL, AND OTHER THERAPEUTIC APPLICATIONS” (priority 2023, published 2026).
# Experiments:
# [1] = system: viral attachment to ACE receptor; conditions: COVID 19; copper chelation not required; cited from earlier work
# [2] = Japanese population, 1970's; cited from earlier work
# cancer cells = conditions: Zhai 2010; Oliveri 2012; cited from earlier work
# tumor cells = conditions: addition of docosahexaenoic acid (DHA); Ding 2006; cited from earlier work
# [3] = system: A2780, A549 and MDA-MB-231 cells; conditions: addition of Cu^+2 to the media; cited from earlier work
structure (smiles),measurement,setting,value
"Oc1c(I)cc(Cl)c2cccnc12 [CQ, 5-chloro-7-iodo-8-hydroxyquinoline]",antiviral activity mechanism,[1],blocking viral attachment to ACE receptor
same,serious side effect,[2],CQ-associated subacute myelo-optic neuropathy
same,effect of copper on anti-cancer activity,cancer cells,enhancer or prerequisite of the anti-cancer activity
same,anticancer activity with omega fatty acids,tumor cells,increase synergistically
same,cytotoxicity change with addition of Cu^+2,[3],significantly increased the cytotoxicity
